Tested on: liver lysosomal (enzyme) extract
Experiment: Digestion assay with rat liver lysosomal extract
Type: biochemical
Conditions: for Velocity, Sample / Velocity, Normalized: Table 3; for Velocity, Sample: FCitFP linker with various R5; for rate and time to completion of digestion, proline at A1 changed to alanine: 33 vs 30, 39 vs 23; for velocity of digestion, addition of phenylalanine: 54 vs 57, 56 vs 59
Experimental: Various amino acid combinations, tetrapeptides, were used to link various first moieties (R^5) and an AENA report group second compound (R^6) to form assay substrates (substrates). Cleavage rate of the peptides were evaluated by analysis of digestion of the substrates in the presence of rat lysosomal extract.
Reporting groups were coupled to the C-terminus of the peptide substrates as described above for UV-vis monitoring to explore the influence of amino acid sequence on kinetics of peptide degradation by HPLC. N-(2-aminoethyl)-4-nitroaniline (AENA) or N-(aminoethyl)-5-napthylamine-1-sulfonic acid (EDANS) were used as reporting groups for HPLC monitoring as neither absorptivity nor lambda maximum were affected for either after cleavage from the peptide. The N-terminus of each peptide substrate was modified with either methoxy polyethylene glycol (PEG12) or N-acetyl galactosamine (NAG(OR)3) (FIG. 1).
Proteolytic digestion experiments were carried out at a fixed substrate concentration (0.51 μmol) using liver lysosomal (enzyme) extract (0.45 μg/μL) in a 25 mM MES solution buffered to pH 5 containing 1% CHAPS and 1.8 mM DTT incubated at 37° C. Enzyme extract was activated in the presence of DTT for 15 minutes at 37° C. prior to addition of AENA labeled peptide substrates. At various time points, up to 26 h, 20 μL aliquots were removed and acidified to a pH of 3 with TFA. Analysis of fractions was performed using HPLC with a Aquasil C18 reverse-phase column (250×4.6, Thermofisher, Waltham, Mass.), monitored at 390 nm and 335 nm for AENA and EDANS respectively. Elution was performed with a gradient of acetonitrile and water buffered with 0.1% formic acid. Generation of unmodified reporter molecule was measured. To minimize freeze thaw cycles the lysosomal extract was dispensed into multiple aliquots prior to storage at −80° C. A new aliquot was employed for each study and used immediately upon thawing. Lysosomal extract was sourced from female Hans Wistar rats by differential density gradient centrifugation (Graham et al. 2000). Protein concentration of lysosomal extract was determined by standard BCA protein assay protocols. […]
Rate (also called velocity of degradation or velocity) was extrapolated during early linear turnover (Table 2). As used herein, rate is defined as the linear rate of reporting group generation at less than 50% completion (digestion rate was assumed to be linear at less than 50% completion). For substrates in which cleavage deviated from consecutive first order kinetics, the percent of reporting group liberated at the endpoint of digestion was used as a metric for comparison.

[1] = AENA substrates, linear rate of reporter generation at <50% completion, pH 5, 37° C.
[2] = AENA substrates, normalized with compound 60 velocity (average 123.8 nmol/h)
[3] = Table 4, dipeptide EDANS C-terminal modified substrates
[4] = Table 4, dipeptide EDANS substrates, normalized with compound 60

| Substance | Sample Velocity [1] [nmol/h] | Normalized Velocity [2] [nmol/h] | Sample Velocity [3] [nmol/h] | Normalized Velocity [4] [nmol/h] | further results |
| --- | --- | --- | --- | --- | --- |
| PEG12-GFLG- AENA [Compound 38] | 10.0 | 9.7 | – | – | % Released at Endpoint (endpoint at 24 hours): **47.8% |
| NAG(OAc)3-VCitFP- AENA [Compound 28] | 84.3 | 75.8 | – | – | % Released at Endpoint (endpoint at 23 hours): *99.4% |
| NAG(OAc)3-FCitFP-AENA [Compound 22a] | – | – | – | – | rate of proteolytic digestion, influence of R5 (22a vs 23, 22a vs 22b): essentially equivalent in terms of rate of proteolytic digestion; Velocity, Sample: 244.9 nmol/h; Velocity, Normalized (normalized with compound 60): 210.5 nmol/h |
| H2N-F(Nme)A-Glu(EDANS)-NH-(CH2)2-OH [Compound 51] | – | – | 177.6 | 162.6 | – |
| PEG12-FNFP- AENA [Compound 32b] | 42.0 | 38.6 | – | – | % Released at Endpoint (endpoint at 26 hours): ***99.3% |
| NAG(OAc)3-ACA- AENA [Compound 43] | – | – | – | – | % Released at Endpoint (21 hr): 1.1% |
| H2N-AP-PEG4-Glu(EDANS)-NH-(CH2)2-OH [Compound 55] | – | – | 125.7 | 115.1 | – |
| H2N-L-PEG4-Glu(EDANS)-NH-(CH2)2-OH [Compound 57] | – | – | 58.3 | 53.3 | – |
| NAG(OAc)3-ACitAA- AENA [Compound 35] | – | – | – | – | % Released at Endpoint (21 hr): 49.8% |
| NAG(OAc)3-FCitFA- AENA [Compound 39] | – | – | – | – | rate and time to completion of digestion, proline at A1 changed to alanine: dramatic reduction in rate and time to completion of digestion; % Released at Endpoint (21 hr): 40.5% |
| NAG(OH)3-FCitAA- AENA [Compound 33] | – | – | – | – | rate and time to completion of digestion, proline at A1 changed to alanine: dramatic reduction in rate and time to completion of digestion; % Released at Endpoint (21 hr): 68.5% |
| H2N-FL-PEG4-Glu(EDANS)-NH-(CH2)2-OH [Compound 54] | – | – | 155.0 | 132.4 | velocity of digestion, addition of phenylalanine: substantial increase in the velocity of digestion |
| H2N-FP-PEG4-Glu(EDANS)-NH-(CH2)2-OH [Compound 48] | – | – | 448.5 | 383.0 | – |
| H2N-VP-PEG4-Glu(EDANS)-NH-(CH2)2-OH [Compound 50] | – | – | 213.5 | 195.5 | – |
| H2N-FA-PEG4-Glu(EDANS)-NH-(CH2)2-OH [Compound 56] | – | – | 61.3 | 56.1 | velocity of digestion, addition of phenylalanine: substantial increase in the velocity of digestion |
| PEG12-FKFP- AENA [Compound 24b] | 134.8 | 123.9 | – | – | velocity, proline vs leucine at A1 (23 vs 27, 24b vs 25b): small increase in velocity; % Released at Endpoint (endpoint at 26 hours): ***98.9% |

| Substance | Sample Velocity [1] [nmol/h] | Normalized Velocity [2] [nmol/h] | Sample Velocity [3] [nmol/h] | Normalized Velocity [4] [nmol/h] | further results |
| --- | --- | --- | --- | --- | --- |
| PEG12-FCitFL- AENA [Compound 27] | 94.5 | 94.7 | – | – | % Released at Endpoint (endpoint at 24 hours): **99.7% |
| NAG(OAc)3-AAA- AENA [Compound 41] | 1.6 | 1.6 | – | – | % Released at Endpoint (21 hr): 8.2% |
| NAG(OH)3-FCitFP-AENA [Compound 22b] | – | – | – | – | Velocity, Sample: 223.7 nmol/h; Velocity, Normalized (normalized with compound 60): 201.0 nmol/h |
| H2N-NP-PEG4-Glu(EDANS)-NH-(CH2)2-OH [Compound 52] | – | – | 156.5 | 151.9 | – |
| H2N-GP-PEG4-Glu(EDANS)-NH-(CH2)2-OH [Compound 58] | – | – | 14.4 | 13.9 | – |
| PEG12-FCitF(Nme)A- AENA [Compound 29] | 62.5 | 62.6 | – | – | rate and completion of digestion, N-methylation at A1 (29 vs 39): faster rate and faster completion of digestion; % Released at Endpoint (endpoint at 23 hours): *97.3% |
| PEG12-FDFP- AENA [Compound 34b] | 18.0 | 16.6 | – | – | % Released at Endpoint (endpoint at 26 hours): ***66.5% |
| NAG(OAc)3-FCitVP- AENA [Compound 26] | 119.5 | 102.5 | – | – | % Released at Endpoint (21 hr): 97.8% |
| H2N-A-PEG4-Glu(EDANS)-NH-(CH2)2-OH [Compound 59] | – | – | 7.9 | 7.2 | – |
| NAG(OAc)3-CitAAA- AENA [Compound 36] | – | – | – | – | % Released at Endpoint (endpoint at 24 hours): **47.7% |
| NAG(OAc)3-CitAA- AENA [Compound 40] | 3.7 | 3.9 | – | – | % Released at Endpoint (21 hr): 15.6% |
| PEG12-ACitFP- AENA [Compound 31] | 49.5 | 49.6 | – | – | % Released at Endpoint (endpoint at 23 hours): *98.9% |
| H2N-LP-PEG4-Glu(EDANS)-NH-(CH2)2-OH [Compound 49] | – | – | 349.1 | 338.7 | – |
| H2N-SP-PEG4-Glu(EDANS)-NH-(CH2)2-OH [Compound 53] | – | – | 145.0 | 140.7 | – |
| PEG12-FKFL- AENA [Compound 25b] | 117.0 | 117.4 | – | – | % Released at Endpoint (endpoint at 24 hours): **99.8% |
